Source: patent publication US20260364182A1, “PROTEOLYSIS-TARGETING CHIMERAS AGAINST THE PAPAIN-LIKE PROTEASE OF SARS-COV-2” (Tocris Cookson Limited, priority 2022, published 2026)

Experiments:
SARS-CoV-2 PLpro = target: T1, SARS-CoV-2 PLpro (Severe acute respiratory syndrome coronavirus 2, UniProt P0DTD1); assay: IC50 inhibitory assay, fluorogenic substrate cleavage by PLpro; assay type: biochemical; settings: SARS-CoV-2 PLpro 0.1 μM; substrate 10 μM; pH 8.1; 37 °C; 10 min preincubation
T1 construct: The papain-like protease domain (PLpro) of SARS-CoV-2 (SCoV2)
Description: The inhibitory activities of compounds against SARS-CoV-2 PLpro were determined in a reaction buffer containing 20 mM HEPES, 40 mM NaCl, 5% glycerol, 2 mM DTT (freshly added before the measurements), pH 8.1, at 37 °C. A fluorescent substrate of SARS-CoV-2 PLpro (Z-Arg-leu-Arg-Gly-Gly-[…]AMC; Biosyntan, Berlin) was used, and the fluorescence signal of the cleaved substrate was monitored using a Tecan Spark® fluorescence spectrophotometer at an […] wavelength of 460/360 nm. SARS-CoV-2 PLpro (10 μL per well) was pipetted into a 96-well plate together with reaction buffer reaction buffer (50 μL per well, final enzyme concentration: 0.1 μM). Compounds (10 μL per well) were added at varying concentrations, and plates incubated at 37 °C for 10 mins. Finally, the reaction was initiated by adding 30 μL of the substrate (final concentration: 10 μM) dissolved in the reaction buffer.
FIG. 1: PROTAC and parent ligand for SARS-CoV-2 PLpro in a binary IC50 experiment. C10778A PROTAC (top left), comprising a SARS-CoV-2 PLpro targeting ligand C10778B (bottom left) connected to thalidomide via a C3 alkyl linker. IC50 values have been determined in an in vitro inhibitory binding assay whereby the fluorescence signal resulting from cleavage of a fluorogenic substrate by PLpro is measured. Inhibition of PLpro is associated with reduced cleavage of the fluorogenic substrate. […] Assay conditions: experiments were performed in 20 mM HEPES buffer containing 40 mM NaCl 5% glycerol, 2 mM DTT at pH 8.1. A fluorogenic substrate for PLpro (Z-Arg-leu-Arg-Gly-Gly-AMC) was used to determine the inhibition rate of compounds. Final DMSO concentration in each reaction was 1%. Measurements were performed in triplicate.

SARS-CoV-2 [1] = assay: Antiviral assay in infected Vero E6 cells (ATP quantification, Cell Titer Glo); settings: for inhibition at 10 µM: read-out: Antiviral Activity, 10 uM (cell viability assay), 10 uM; for inhibition at 50 µM: read-out: Antiviral Activity, 50 uM (cell viability assay), 50 uM
Description: Vero E6 cells (2×10^4/well) were seeded in 96 well plates one day before the experiment. Pre-treatment, the medium was removed and compounds were added at concentrations varying from 0.1-100 μM. After 24 h incubation, the medium was removed and cells were infected with MOI 0.05 SARS-CoV-2 SARS-CoV2/ZG/297-20. After 1 h infection, the viruses were removed and the same concentration of compounds were added back into the cells. After 72 h incubation at 37 °C, EC50 measurements were made using ATP quantification (Cell Titer Glo).

SARS-CoV-2 [2] = assay: Plaque reduction assay in Vero E6 cells; assay type: cell-based; settings: MOI 0.1
[3] = Severe acute respiratory syndrome coronavirus 2, Vero C1008, 72 h, Vero E6 cells, MOI 0.05, 72 h

Compound	IC50 (SARS-CoV-2 PLpro)	inhibition at 10 µM (SARS-CoV-2 [1]; [3])	inhibition at 50 µM (SARS-CoV-2 [1]; [3])	plaque reduction (viable virus, in words) (SARS-CoV-2 [2])	EC50 (SARS-CoV-2 [1]; Severe acute respiratory syndrome coronavirus 2, Vero C1008, 72 h)	Antiviral Activity, 10 uM (cell viability assay) (SARS-CoV-2 [1]; 10 uM, Vero E6 cells, MOI 0.05, 72 h, 4320 min)	Antiviral Activity, 50 uM (cell viability assay) (SARS-CoV-2 [1]; 50 uM, Vero E6 cells, MOI 0.05, 72 h)
Cc1ccc(NC(=O)CCCCNc2cccc3c2CN(C2CCC(=O)NC2=O)C3=O)cc1C(=O)N[C@H](C)c1cccc2ccccc12 (some centres unmarked) [TS124]	< 10 µM	< 0%	< 25%	–	–	–	–
C[C@H](c1cccc2ccccc12)N1CCC(C(=O)NCc2cc(F)cc(NC(=O)N3CCN(CCCCCCOc4cccc5c4C(=O)N(C4CCC(=O)NC4=O)C5=O)CC3)c2)CC1 (some centres unmarked) [TS444]	< 10 µM	< 25%	< 25%	–	–	–	–
C[C@H](c1cccc2ccccc12)N1CCC(C(=O)NCc2cc(F)cc(NC(=O)N3CCN(CCCCCCCCOc4ccc5c(c4)C(=O)N(C4CCC(=O)NC4=O)C5=O)CC3)c2)CC1 (some centres unmarked) [TS516]	10 to 25 µM	< 50%	> 75%	efficiently reduces viable virus	4.4 µM	–	–
C[C@H](c1cccc2ccccc12)N1CCC(C(=O)NCc2cc(F)cc(NC(=O)N3CCN(CCOCCOc4cccc5c4C(=O)N(C4CCC(=O)NC4=O)C5=O)CC3)c2)CC1 (some centres unmarked) [TS424]	< 10 µM	< 0%	< 0%	–	–	–	–
Cc1ccc(NC(=O)CCOCCOCCOCCNc2cccc3c2C(=O)N(C2CCC(=O)NC2=O)C3=O)cc1C(=O)N[C@H](C)c1cccc2ccccc12 (some centres unmarked) [TS128]	< 10 µM	< 0%	< 0%	–	–	–	–
Cc1ccc(NC2CCNCC2)cc1C(=O)N[C@H](C)c1cccc(-c2ccc(CNC(=O)CCCNc3ccc4c(c3)C(=O)N(C3CCC(=O)NC3=O)C4=O)s2)c1 (some centres unmarked) [Compound C10778E]	< 1 µM	< 0%	< 0%	–	–	–	–
C[C@H](c1cccc2ccccc12)N1CCC(C(=O)NCc2cc(F)cc(NC(=O)N3CCN(CCOc4cccc5c4C(=O)N(C4CCC(=O)NC4=O)C5=O)CC3)c2)CC1 (some centres unmarked) [TS445]	< 1 µM	< 25%	< 25%	–	–	–	–
C[C@H](c1cccc2ccccc12)N1CCC(C(=O)NCc2cc(F)cc(NC(=O)N3CCN(CCCCCCCCOc4cccc5c4C(=O)N(C4CCC(=O)NC4=O)C5=O)CC3)c2)CC1 (some centres unmarked) [TS446]	> 25 µM	< 50%	> 75%	–	–	–	–
Cc1ccc(NC(=O)CCOCCNc2cccc3c2C(=O)N(C2CCC(=O)NC2=O)C3=O)cc1C(=O)N[C@H](C)c1cccc2ccccc12 (some centres unmarked) [TS144]	10 to 25 µM	< 0%	< 0%	–	–	–	–
C[C@H](c1cccc2ccccc12)N1CCC(C(=O)NCc2cc(F)cc(NC(=O)N3CCN(CCOCCOCCC(=O)N4CCN(c5ccc(C6CCC(=O)NC6=O)cc5)CC4)CC3)c2)CC1 (some centres unmarked) [TS568]	< 10 µM	< 25%	< 75%	–	–	–	–
Cc1ccc(NC(=O)CCCCCOc2cc(-c3scnc3C)ccc2CNC(=O)[C@@H]2C[C@@H](O)CN2C(=O)[C@@H](NC(=O)C2(F)CC2)C(C)(C)C)cc1C(=O)N[C@H](C)c1cccc2ccccc12 (stereo in doubt) [TS291]	> 25 µM	< 0%	< 25%	–	–	–	–
C[C@H](c1cccc2ccccc12)N1CCC(C(=O)NCc2cc(F)cc(NC(=O)N3CCN(CCCCC(=O)N4CCN(c5ccc(C6CCC(=O)NC6=O)cc5)CC4)CC3)c2)CC1 (some centres unmarked) [TS551]	< 10 µM	< 25%	< 50%	–	–	–	–
C[C@H](c1cccc2ccccc12)N1CCC(C(=O)NCc2cc(F)cc(NC(=O)N3CCN(CCOCCOCCC(=O)N4CCN(c5ccc(N6CCC(=O)NC6=O)cc5)CC4)CC3)c2)CC1 [TS569]	< 10 µM	< 0%	< 25%	–	–	–	–
Cc1ccc(NC2CCNCC2)cc1C(=O)N[C@H](C)c1cccc(-c2ccc(CNC(=O)CCCCCOc3cccc4c3C(=O)N(C3CCC(=O)NC3=O)C4=O)s2)c1 (some centres unmarked) [Compound C10778C]	< 10 µM	< 0%	< 0%	–	–	–	–
Cc1ccc(NC(=O)CCCCNc2cccc3c2C(=O)N(C2CCC(=O)NC2=O)C3=O)cc1C(=O)N[C@H](C)c1cccc2ccccc12 (some centres unmarked) [TS267]	< 10 µM	< 0%	< 0%	–	–	–	–
Cc1ccc(NC(=O)CCCCCNc2cccc3c2CN(C2CCC(=O)NC2=O)C3=O)cc1C(=O)N[C@H](C)c1cccc2ccccc12 (some centres unmarked) [TS121]	10 to 25 µM	< 0%	< 0%	–	–	–	–
Cc1ccc(NC(=O)CCCCCCCCC(=O)N[C@H](C(=O)N2C[C@H](O)C[C@H]2C(=O)NCc2ccc(-c3scnc3C)cc2)C(C)(C)C)cc1C(=O)N[C@H](C)c1cccc2ccccc12 [TS311]	> 25 µM	< 0%	< 0%	–	–	–	–
Cc1ccc(NC(=O)CCOCCNc2ccc3c4c(cccc24)C(=O)N(C2CCC(=O)NC2=O)C3=O)cc1C(=O)N[C@H](C)c1cccc2ccccc12 (some centres unmarked) [Compound C10778H]	> 25 µM	–	–	–	–	D (<25% = D)	E (<0% = E)
Cc1ccc(NC2CCNCC2)cc1C(=O)N[C@H](C)c1cccc(-c2ccc(CNC(=O)CCCCCNC(=O)COc3ccc(C4CCC(=O)NC4=O)cc3)s2)c1 (some centres unmarked) [Compound C10778G]	< 1 µM	< 25%	< 25%	–	–	–	–
